Values of other authors as cited in patent US8551985B2, “Carbinol derivatives having heterocyclic linker” (Kowa Company, Ltd., priority 2009, dated 2013).

Molecular target: T1, LXRβ (Homo sapiens, UniProt P55055)
T1 sequence (P55055 1-460): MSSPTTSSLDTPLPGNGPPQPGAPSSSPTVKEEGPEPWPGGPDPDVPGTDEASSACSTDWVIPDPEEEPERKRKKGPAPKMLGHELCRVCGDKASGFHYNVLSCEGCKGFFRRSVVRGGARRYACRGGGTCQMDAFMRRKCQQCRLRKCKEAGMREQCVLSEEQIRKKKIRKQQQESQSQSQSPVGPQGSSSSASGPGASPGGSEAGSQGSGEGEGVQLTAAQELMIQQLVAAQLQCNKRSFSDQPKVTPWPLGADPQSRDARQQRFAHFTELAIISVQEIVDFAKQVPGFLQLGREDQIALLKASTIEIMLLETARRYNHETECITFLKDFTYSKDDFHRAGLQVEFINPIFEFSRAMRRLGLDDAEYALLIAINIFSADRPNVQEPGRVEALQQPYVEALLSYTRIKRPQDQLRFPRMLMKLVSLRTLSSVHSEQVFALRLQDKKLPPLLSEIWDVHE

Compound: O=C(O)Cc1ccc(COc2cccc(-c3c(Cc4ccccc4)cnc4c(C(F)(F)F)cccc34)c2)cc1 [WAY-254011]
- LXRβ-selective binding affinity (α/β ratio): 1 to 5
